The values that follow come from patent US9650389B2, “8-oxoprotoberberine derivative or pharmaceutically acceptable salt thereof, preparation method therefor and pharmaceutical composition for preventing or treating diseases associated with activity of NFAT5, containing same as active ingredient” (Korea Research Institute of Chemical Technology, priority 2013, dated 2017).

One data set deals with T1, COX2 (Ovis aries, UniProt P79208).
T1 construct: purchased Cayman Co. 760111
T1 sequence (P79208 17-603): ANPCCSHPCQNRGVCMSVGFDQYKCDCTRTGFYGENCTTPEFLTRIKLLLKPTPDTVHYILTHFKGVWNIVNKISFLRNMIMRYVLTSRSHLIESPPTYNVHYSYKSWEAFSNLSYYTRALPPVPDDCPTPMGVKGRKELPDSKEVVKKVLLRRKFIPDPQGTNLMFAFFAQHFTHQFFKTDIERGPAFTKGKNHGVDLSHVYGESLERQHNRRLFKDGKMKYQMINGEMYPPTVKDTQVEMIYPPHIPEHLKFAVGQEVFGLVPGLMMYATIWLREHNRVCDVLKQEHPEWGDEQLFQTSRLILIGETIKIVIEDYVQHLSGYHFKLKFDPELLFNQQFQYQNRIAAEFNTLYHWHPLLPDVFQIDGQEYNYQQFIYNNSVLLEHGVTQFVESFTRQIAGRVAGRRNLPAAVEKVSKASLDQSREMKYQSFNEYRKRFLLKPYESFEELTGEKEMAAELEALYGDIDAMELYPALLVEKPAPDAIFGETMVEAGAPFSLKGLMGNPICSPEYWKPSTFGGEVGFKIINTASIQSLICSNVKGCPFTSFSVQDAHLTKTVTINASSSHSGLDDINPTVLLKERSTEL
The experiment in a line: COX inhibition, COX assay kit (Table 5). Format: biochemical. The procedure: (§1) 10 μl of substrate and 10 μl of arachidonic acid were added thereto, followed by reaction for 10 minutes in the darkness. Then, OD590 was measured.

The target of the next data set is T2, COX1 (Ovis aries, UniProt P05979).
T2 construct: purchased Cayman Co. 760111
T2 sequence (P05979 25-600): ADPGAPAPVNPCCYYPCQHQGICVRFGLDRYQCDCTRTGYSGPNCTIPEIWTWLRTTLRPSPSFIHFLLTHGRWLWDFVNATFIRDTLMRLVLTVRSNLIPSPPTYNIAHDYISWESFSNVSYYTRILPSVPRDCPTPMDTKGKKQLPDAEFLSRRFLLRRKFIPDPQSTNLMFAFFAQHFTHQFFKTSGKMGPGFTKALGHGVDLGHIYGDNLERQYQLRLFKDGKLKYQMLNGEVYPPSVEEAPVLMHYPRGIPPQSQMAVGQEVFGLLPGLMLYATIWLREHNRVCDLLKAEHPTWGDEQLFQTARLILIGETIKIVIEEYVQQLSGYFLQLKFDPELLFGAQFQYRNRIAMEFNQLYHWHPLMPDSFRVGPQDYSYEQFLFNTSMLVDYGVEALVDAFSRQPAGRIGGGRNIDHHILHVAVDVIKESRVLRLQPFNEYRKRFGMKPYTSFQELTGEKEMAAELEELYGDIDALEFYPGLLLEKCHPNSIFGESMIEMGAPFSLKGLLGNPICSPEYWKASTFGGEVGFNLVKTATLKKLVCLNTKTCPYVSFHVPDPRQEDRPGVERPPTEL
Put plainly: COX inhibition, COX assay kit (Table 4). Format: biochemical. The procedure:
as §1

A short description of data set [1]: Cytotoxicity test (WST-8), CHO-K1. Format: cell-based. The settings on record: Chinese hamster, CHO-K1 ovary cells; CHO-K1, 24 hours. How it is done: (§2) To investigate the cytotoxicity of the derivative of the present invention, 5 kinds of cell lines (VERO: African green monkey kidney cell line, HFL-1: human embryonic lung cell line, L929: NCTC clone 929, mouse fibroblast cell line, NIH 3T3: mouse embryonic fibroblast cell line, and CHO-K1: Chinese hamster ovary cell line) were distributed in a 96-well plate at the density of 1×10^4 cells/well, which were treated with the compound of the present invention for 24 hours. The water-soluble tetrazolium salt WST-8 was added thereto. The orange colored formazan dye degraded by dehydrogenase in the live cells was read, followed by nonlinear regression to determine 50% growth inhibition concentration.

In data set [2] the test system is inflammatory cytokines (TNF-α, IL-6). Put plainly: Inflammatory cytokines in LPS-stimulated spleen cells of collagen-induced arthritis mice (ELISA). The settings on record: 15 and 60 mg/kg; arthritis mouse spleen cells, LPS 12 hours; FIG. 8. Format: in vivo. How it is done: Particularly, the mice having arthritis induced by collagen in Example 10 were used herein. Cells were extracted from the mouse spleen, which were cultured in a 12-well plate and stabilized. Cells were stimulated with LPS for 12 hours and the expressions of inflammatory cytokines (TNF-α, IL-6) were measured by ELISA.
(In general: ELISA stands for enzyme-linked immunosorbent assay.)

For a further data set, the system named is iNOS. Put plainly: Inhibition of LPS-induced iNOS induction in Raw264.7 cells (Griess reagent). The settings on record: Mus musculus, Raw264.7, LPS 100 ng/ml, 24 hours, read-out: Inhibition rate of iNOS induction (%). Format: cell-based. How it is done:
To investigate whether or not the derivative of the present invention could inhibit iNOS inducement, Raw264.7 cells (mouse macrophages) were distributed in a 384-well plate at the density of 3×10^4 cells/well. The cells were treated with LPS at the concentration of 100 ng/ml, followed by culture at 37° C. for 24 hours. The concentration of […] increased in the medium was measured by using Griess reagent. The inhibition rate was calculated by mathematical formula based on the detected signals. The results are shown in Table 2. % inhibition=(mean value of sample−mean value of negative control)/(mean value of positive control −mean value of negative control)×100 [Mathematical Formula 1]
A general note: The Griess reaction detects nitrite, a stable product of nitric oxide.

Data set [3] can be described thus: Cytotoxicity test (WST-8), L929. Particulars: mouse, L929 fibroblast cells (NCTC clone 929); L929, 24 hours. Format: cell-based. The procedure: as §2
Background: Tetrazolium dyes change colour on reduction, which living cells bring about.

[4] abbreviates: Conc. 20 μM, two values per substance.
Setting [5] is: Conc. 20 μM, two values per substance, read-out: inhibition rate.
[6] abbreviates: Conc. 100 μM, two values per substance.
[7] abbreviates: Conc. 100 μM, two values per substance, read-out: inhibition rate.

A value given as a limit tells only on which side of the number the result lay.

Usually inhibition stands for the change of the read-out against control, counted positive when it falls. For orientation: IC50 means the point on the concentration scale where inhibition reaches its midpoint. Higher therefore signals a need for much substance. Usually GI50 stands for the concentration at which growth is held to half of that of the control. A lower GI50 goes with greater sensitivity of the cells. Regarding `COc1ccc2c(Cc3ccccc3F)c3n(c(=O)c2c1OC)CCc1cc2c(cc1-3)OCO2` [Example 1, 13-(2-fluorobenzyl)-9,10-dimethoxy-5H-[1,3]dioxolo[4,5-g]isoquinolino[3,2-a]isoquinoline-8(6H)-one], the “inhibitory effect on COX2 (in words)” value against COX2 was “weak inhibitory effect”. Also, the inhibition rate against COX2 (setting [4]) was found to be 15.5; at COX2 (setting [6]), 25.7; at COX1 (setting [4]) it was 7.4; against COX1 (setting [6]), 23.4. Moreover, the figures for the inhibition at 20 µM on COX2 (setting [5]) and at COX1 (setting [5]) were 12.1% and 11.4%, respectively. For the same molecule, the figures for the inhibition at 100 µM at COX2 (setting [7]) and on COX1 (setting [7]) were 36.7% and 28.4%, respectively. For the same molecule, the IC50 against COX2 (Table 5) and against COX1 (Table 4) was over 100 µM in each case. The “inhibitory effect on COX1 (in words)” value on COX1 was “weak inhibitory effect”. Further, the GI50 at 24 h in data set [1] worked out at 12.1 µM; in data set [3], 40.3 µM. For the same molecule, in data set [2], the “expression of IL-6” value is given as “reduced”. For the same molecule, the “expression of TNF-α” value in data set [2] is reported as “reduced”. The inhibition at 1 µM with iNOS (1 μM) came out at 91%. Further, the inhibition at 10 µM with iNOS (10 μM) amounted to 134%.
